# Laboratory results reported in PubChem BioAssay AID2060890 (Molecular Pharmacology Branch, DTP, NCI, 2025).
# System: LG0703-F948-PDC complex spheroid viability
# Test: Anticancer human tumor LG0703-F948-PDC patient-derived lung adenocarcinoma cell line growth inhibition [RAS]
# Details: for IC50: curve of first compound; for viability, T/C: stronger effect = lower value
# In short: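 Agents were tested in combination matrices in half-log decrements from a top concentration at or near clinical Cmax (10 microM if undetermined). Targets were multi-cell spheroids of tumour lines plus HUVEC and MSC stromal cells.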
# 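Also: spheroids exposed to agents for 7 days.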
# 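For viability, T/C in this document: 100% = DMSO vehicle wells.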
structure (smiles),measurement,setting,value
C=CC(=O)Nc1cc(Nc2nccc(-c3cn(C)c4ccccc34)n2)c(OC)cc1N(C)CCN(C)C + CCn1c(-c2cc(N3CCN(C)CC3)cnc2C(C)OC)c2c3cc(ccc31)-c1csc(n1)CC(NC(=O)C1CC1C)C(=O)N1CCCC(N1)C(=O)OCC(C)(C)C2,IC50,second compound 0.000949 µM,5.17 nM
same,IC50,second compound 0.003 µM,< 3.16 nM
same,IC50,second compound 0.00949 µM,< 3.16 nM
same,IC50,second compound 0.03 µM,< 3.16 nM
same,IC50,second compound 0.0949 µM,< 3.16 nM
same,IC50,second compound 0.3 µM,< 3.16 nM
same,"viability, T/C","second compound 0.000949 µM, first compound 0.00316 µM",62.6%
same,"viability, T/C","second compound 0.000949 µM, first compound 0.01 µM",33%
same,"viability, T/C","second compound 0.000949 µM, first compound 0.0316 µM",17.7%
same,"viability, T/C","second compound 0.000949 µM, first compound 0.1 µM",12.9%
same,"viability, T/C","second compound 0.000949 µM, first compound 0.316 µM",11.6%
same,"viability, T/C","second compound 0.000949 µM, first compound 1 µM",9.33%
same,"viability, T/C","second compound 0.003 µM, first compound 0.00316 µM",30.5%
same,"viability, T/C","second compound 0.003 µM, first compound 0.01 µM",18.5%
same,"viability, T/C","second compound 0.003 µM, first compound 0.0316 µM",12.6%
same,"viability, T/C","second compound 0.003 µM, first compound 0.1 µM",10.9%
same,"viability, T/C","second compound 0.003 µM, first compound 0.316 µM",12.3%
same,"viability, T/C","second compound 0.003 µM, first compound 1 µM",8.1%
same,"viability, T/C","second compound 0.00949 µM, first compound 0.00316 µM",24%
same,"viability, T/C","second compound 0.00949 µM, first compound 0.01 µM",14.2%
same,"viability, T/C","second compound 0.00949 µM, first compound 0.0316 µM",12.6%
same,"viability, T/C","second compound 0.00949 µM, first compound 0.1 µM",9.67%
same,"viability, T/C","second compound 0.00949 µM, first compound 0.316 µM",8.83%
same,"viability, T/C","second compound 0.00949 µM, first compound 1 µM",9.91%
same,"viability, T/C","second compound 0.03 µM, first compound 0.00316 µM",14.1%
same,"viability, T/C","second compound 0.03 µM, first compound 0.01 µM",13.1%
same,"viability, T/C","second compound 0.03 µM, first compound 0.0316 µM",8.75%
same,"viability, T/C","second compound 0.03 µM, first compound 0.1 µM",7.03%
same,"viability, T/C","second compound 0.03 µM, first compound 0.316 µM",6.1%
same,"viability, T/C","second compound 0.03 µM, first compound 1 µM",4.67%
same,"viability, T/C","second compound 0.0949 µM, first compound 0.00316 µM",9.07%
same,"viability, T/C","second compound 0.0949 µM, first compound 0.01 µM",7.77%
same,"viability, T/C","second compound 0.0949 µM, first compound 0.0316 µM",5.22%
same,"viability, T/C","second compound 0.0949 µM, first compound 0.1 µM",5.15%
same,"viability, T/C","second compound 0.0949 µM, first compound 0.316 µM",5.21%
same,"viability, T/C","second compound 0.0949 µM, first compound 1 µM",3.75%
same,"viability, T/C","second compound 0.3 µM, first compound 0.00316 µM",7.47%
same,"viability, T/C","second compound 0.3 µM, first compound 0.01 µM",9.59%
same,"viability, T/C","second compound 0.3 µM, first compound 0.0316 µM",5.92%
same,"viability, T/C","second compound 0.3 µM, first compound 0.1 µM",5.32%
same,"viability, T/C","second compound 0.3 µM, first compound 0.316 µM",4.11%
same,"viability, T/C","second compound 0.3 µM, first compound 1 µM",2.62%
CCN1CCN(Cc2ccc(Nc3ncc(F)c(-c4cc(F)c5nc(C)n(C(C)C)c5c4)n3)nc2)CC1 + C=CC(=O)N1CCN(c2nc(OCC3CCCN3C)nc3c(F)c(-c4nc(N)cc(C)c4C(F)(F)F)c(Cl)cc23)C(C)C1,IC50,second compound 0.00316 µM,> 1000 nM
same,IC50,second compound 0.01 µM,> 1000 nM
same,IC50,second compound 0.0316 µM,> 1000 nM
same,IC50,second compound 0.1 µM,> 1000 nM
same,IC50,second compound 0.316 µM,> 1000 nM
same,IC50,second compound 1 µM,> 1000 nM
same,"viability, T/C","second compound 0.00316 µM, first compound 0.00316 µM",106%
same,"viability, T/C","second compound 0.00316 µM, first compound 0.01 µM",92.5%
same,"viability, T/C","second compound 0.00316 µM, first compound 0.0316 µM",85.5%
same,"viability, T/C","second compound 0.00316 µM, first compound 0.1 µM",74.7%
same,"viability, T/C","second compound 0.00316 µM, first compound 0.316 µM",85.3%
same,"viability, T/C","second compound 0.00316 µM, first compound 1 µM",66.9%
same,"viability, T/C","second compound 0.01 µM, first compound 0.00316 µM",110%
same,"viability, T/C","second compound 0.01 µM, first compound 0.01 µM",98.8%
same,"viability, T/C","second compound 0.01 µM, first compound 0.0316 µM",89.8%
same,"viability, T/C","second compound 0.01 µM, first compound 0.1 µM",86.5%
same,"viability, T/C","second compound 0.01 µM, first compound 0.316 µM",81%
same,"viability, T/C","second compound 0.01 µM, first compound 1 µM",71%
same,"viability, T/C","second compound 0.0316 µM, first compound 0.00316 µM",108%
same,"viability, T/C","second compound 0.0316 µM, first compound 0.01 µM",109%
same,"viability, T/C","second compound 0.0316 µM, first compound 0.0316 µM",91.1%
same,"viability, T/C","second compound 0.0316 µM, first compound 0.1 µM",79.7%
same,"viability, T/C","second compound 0.0316 µM, first compound 0.316 µM",82.7%
same,"viability, T/C","second compound 0.0316 µM, first compound 1 µM",61.7%
same,"viability, T/C","second compound 0.1 µM, first compound 0.00316 µM",106%
same,"viability, T/C","second compound 0.1 µM, first compound 0.01 µM",98.9%
same,"viability, T/C","second compound 0.1 µM, first compound 0.0316 µM",92.5%
same,"viability, T/C","second compound 0.1 µM, first compound 0.1 µM",78%
same,"viability, T/C","second compound 0.1 µM, first compound 0.316 µM",84.3%
same,"viability, T/C","second compound 0.1 µM, first compound 1 µM",68.9%
same,"viability, T/C","second compound 0.316 µM, first compound 0.00316 µM",106%
same,"viability, T/C","second compound 0.316 µM, first compound 0.01 µM",95.6%
same,"viability, T/C","second compound 0.316 µM, first compound 0.0316 µM",89.6%
same,"viability, T/C","second compound 0.316 µM, first compound 0.1 µM",81.5%
same,"viability, T/C","second compound 0.316 µM, first compound 0.316 µM",78.7%
same,"viability, T/C","second compound 0.316 µM, first compound 1 µM",64.3%
same,"viability, T/C","second compound 1 µM, first compound 0.00316 µM",109%
same,"viability, T/C","second compound 1 µM, first compound 0.01 µM",109%
same,"viability, T/C","second compound 1 µM, first compound 0.0316 µM",108%
same,"viability, T/C","second compound 1 µM, first compound 0.1 µM",81.2%
same,"viability, T/C","second compound 1 µM, first compound 0.316 µM",87.4%
same,"viability, T/C","second compound 1 µM, first compound 1 µM",65.3%
